Source: article PMC5938026 (Experimental & Molecular Medicine, 2018)

What follows are compounds tested against Kv1.5 (Rattus norvegicus, UniProt P19024) (assay: whole-cell patch clamp of CHO cells overexpressing Kv1.[…]).
Chain of Kv1.5 (P19024 whole entry): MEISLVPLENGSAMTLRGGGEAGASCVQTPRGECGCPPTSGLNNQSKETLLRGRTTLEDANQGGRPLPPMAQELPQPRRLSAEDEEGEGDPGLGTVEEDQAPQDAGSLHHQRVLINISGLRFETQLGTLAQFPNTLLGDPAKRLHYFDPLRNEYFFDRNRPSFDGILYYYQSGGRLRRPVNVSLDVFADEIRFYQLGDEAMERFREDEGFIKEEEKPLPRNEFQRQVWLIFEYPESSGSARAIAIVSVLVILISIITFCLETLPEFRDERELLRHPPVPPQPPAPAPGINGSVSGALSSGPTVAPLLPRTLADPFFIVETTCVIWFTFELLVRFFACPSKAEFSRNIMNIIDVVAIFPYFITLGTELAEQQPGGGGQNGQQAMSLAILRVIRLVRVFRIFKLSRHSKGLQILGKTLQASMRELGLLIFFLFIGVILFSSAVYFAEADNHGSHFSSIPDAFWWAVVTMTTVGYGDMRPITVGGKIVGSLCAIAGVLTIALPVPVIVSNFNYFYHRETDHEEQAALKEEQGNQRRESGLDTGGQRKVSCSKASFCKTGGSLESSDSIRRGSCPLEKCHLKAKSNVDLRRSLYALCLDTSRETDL
Format: cell-based
Work on `C[C@]12N[C@H](Cc3ccccc31)c1ccccc12` [(+) MK801] yielded an IC50 of 157 ± 14 µM. Work on `CNC1(c2ccccc2Cl)CCCCC1=O` (racemic) [ketamine] yielded an IC50 of 641 ± 33.2 µM. Compound `C[C@@]12N[C@@H](Cc3ccccc31)c1ccccc12` [(−) MK801] has an IC50 of 157 ± 7.9 µM.
